Laboratory results from US8894993B2, “Mitochondria-targeted antioxidants” (Natreon Inc., priority 2006, dated 2014).

What was measured:
[1] = Stability of reduced CoQ10 (CoQH2) by 3,8-(OH)2-DBP at different pH, HPLC; format: physicochemical
[2] = as above; format: physicochemical; conditions: for Reduced CoQ10 remaining in control: no DBP
Method: Two mg of solid CoQ10 (SRL, India), in an airtight vial was dissolved in 1 ml of methanol. After thorough vortexing, 5 mg of solid NaBH4 (Merck India) was added, 1 mg at a time, to the yellow colored solution of CoQ10 in methanol and kept in an ice-bath for a few minutes. The vial was kept shut to avoid contact with air but opened occasionally to avoid generation of pressure inside due to accumulation of hydrogen. After the reduction reaction, a clear colorless solution was obtained to which methanolic solution of 3,8-(OH)2-DBP with a concentration of 1 mg/ml (>90% pure) was added in a ratio of 1:1 to obtain a final concentration of the mixture—reduced CoQ10 […] DBP 0.5 mg/ml. This solution was analyzed by HPLC for reduced CoQ10 content at different time intervals. A control was prepared in similar fashion except that no DBP was added. The pH of the solutions was determined to be 8 using pH paper. To obtain solutions of reduced CoQ10 with pH 7 and pH 3, aliquots of concentrated HCl were added to the methanolic solution of reduced CoQ10 at pH 8. Afterwards, a solution of DBP was added and analysis by HPLC at different time intervals was conducted, as before.
(§1) Mobile phase—Methanol:Acetonitrile:Ethanol 30:30:40
Detection—PDA 290 nm for reduced CoQ10

[3] = Inhibition of CoQ-CoQH2 aberrant metabolite formation during red-ox recycling, HPLC; format: physicochemical; conditions: in vitro
Method: Methanolic solution of coenzyme Q10 (1 mg/ml) was reduced by NaBH4 to pH 8 when the yellow solution became colorless. About 1 mg of 3,8-(OH)2-DBP was added to the solution and the mixture was analyzed by HPLC at different time intervals (0-80 min). A control CoQ10, without 3,8-(OH)2-DBP, was prepared similarly and analyzed at different time intervals (0-80 min).
Column—NovaPak RP C18 [250×4 mm]
as §1
(§2) Detection—PDA 275 nm for CoQ10
Reduced CoQ10 (CoQH2) has a tendency to rapidly autoxidize in the presence of air. […] The aberrant metabolites increased rapidly with time (Table 10).

[4] = tested on: stress-induced lipid peroxidation of mouse liver mitochondria; test: Stress-induced lipid peroxidation of mouse liver mitochondria (thiobarbituric acid reaction); format: in vivo, Swiss albino mice; conditions: oral each 5 mg/Kg b.w. per day for 5 days, hypoxic stress, control 0.495
Method: (§3) Swiss albino mice (20±g) were fed orally with—(a) 3,8-(OH)2-DBP; (b) CoQ10; (c) a combination of 3,8-(OH)2-DBP and CoQ10 and (d) 3,8-(OH)2-DBP and CoQ10 in a clathrated form with fusoms (each 5 mg/Kg b.w.), per day, for 5 days. The animals were subjected to hypoxic stress for 1 hour each day for 3 days from the 3rd day of the experiment. After the stipulated time-period, brain and liver of the animals were collected and mitochondria from the liver were separated as described previously (Liu Y, Deng F, Zhao R and Qu S, Chemosphere, 40(8):851-854, 2000). Lipid peroxidation in brain and liver-mitochondria was estimated by the method of Ohkawa et al. (Ohkawa H, Ohishi N and Yagi K, Assay for lipid peroxides in animal tissues by thiobarbituric acid reaction. Anal. Biochem., 95:351-358, 1979).

[5] = Coenzyme Q in mice blood plasma and organs after oral feeding, HPLC; format: in vivo, Swiss albino mice; conditions: oral each 5 mg/Kg b.w. per day for 5 days
Method: One year old caged stressed Sprague-Dawley rats (250-270 gms) were fed the following, individually or in combination after suspension in 0.8% carboxymethyl cellulose: CoQ10 (5 mg/Kg b.w./day) and 3,8-(OH)2-DBP (5 mg/Kg b.w./day) for 5 days. Blood was collected by puncture of the retro-orbital plexus. The plasma was separated by centrifugation, extracted with methanol and subjected to HPLC. In another experiment, Swiss albino mice (20±2 g) were fed orally with—(a) 3,8-(OH)2-DBP; (b) CoQ10; (c) a combination of 3,8-(OH)2-DBP and CoQ10 and (d) 3,8-(OH)2-DBP and CoQ10 in a clathrated form with Shilajit-fusoms (each 5 mg/Kg b.w.), per day, for 5 days. The animals were subjected to hypoxic stress for 1 hour each day for 3 days from the 3rd day of the experiment. After the stipulated time-period, the content of CoQ10 and their conjugates with DBP were estimated in heart, kidney, liver (in wet weight basis) and in blood, by HPLC, after proper extraction from the tissues according to the procedure depicted in the literature (Rousseau, G and Varin, F, Determination of Ubiquinone-9 and 10 levels in rat tissues and blood by High Performance Liquid Chromatography with Ultraviolet detection. J. Chromat. Sci., 36(5): 247-252, 1998).
Column—RP C18 Xterra [250×4 mm]
as §1, §2
Bioavailability was more when CoQ10 and 3,8-(OH)2-DBP using the fulvic acid system. A systemic increment of CoQ10 was also observed in mice blood plasma and a few organs upon oral feeding of this formulation. The extent of the increment of CoQ10 was more when CoQ10 and 3,8-(OH)2-DBP were targeted to mitochondria using the fulvic acid delivery system (Table 5). A similar trend in the increment was also observed in the case of CoQ10-DBP conjugates when the fulvic acid system was used. […] Thus, concurrent supplementation of CoQ10 and 3,8-(OH)2-DBP [or 3-OH-DBP, which is systemically converted into 3,8-(OH)2-DBP] using a fulvic acid delivery system would efficiently perform their targeting to mitochondria. This can be regarded as effective therapeutic strategy against stress-induced oxidative damage of cells and DNA damage due to old-age.

[6] = tested on: stress-induced lipid peroxidation of mouse brain; test: Stress-induced lipid peroxidation of mouse brain (thiobarbituric acid reaction); format: in vivo, Swiss albino mice; conditions: oral each 5 mg/Kg b.w. per day for 5 days, hypoxic stress, control 1.169
Method: as §3

[7] = DBP products in mice liver mitochondria before and after DBPs treatment, HPTLC; format: in vivo, Swiss Albino mice; conditions: one hour after i.p. 4:1 mixture of 3,8-(OH)2-DBP and 3-OH-DBP 20 mg/Kg
Method: Mitochondria were isolated from heart and liver of chicken, goat and mice following a published procedure (Liu Y, Deng F, Zhao R and Qu S, Chemosphere, 40(8):851-854, 2000). […] The tissue was cut into small pieces, homogenized and centrifuged at 900 g for one minute. The supernatant was again centrifuged twice, for 20 minutes each time at 900 g. The sediment at each step was discarded. The clear supernatant was centrifuged twice at 12,000 g, 20 minutes each time, to form pellets of a mitochondria-enriched fraction. The fraction was divided into two parts. One part was resuspended in a measured volume of distilled water and sonicated (10 min×2). […] The two extracts were subjected to comprehensive HPTLC and HPLC analyses for detection and quantitation of DBPs and their equivalents. […] One hour after administration the animals were sacrificed and mitochondria from liver were isolated and analyzed as described for Example 6. […] Mobile Phase—Chloroform:Methanol 90:10 Sample application—CAMAG LINOMAT 5 (Automated applicator) Detection—240 nm (CAMAG TLC SCANNER 3) 3-OH-DBP and 3,8-(OH)2-DBP (and their conjugates) were detected in mitochondria of control mice by HPTLC. Administration of DBPs to the animals increased the amount of DBPs and its products in mitochondria as detected by using authentic markers of the two DBPs (Table 2).

COc1c(O)c(C)c(C/C=C(\C)CC/C=C(\C)CC/C=C(\C)CC/C=C(\C)CC/C=C(\C)CC/C=C(\C)CC/C=C(\C)CC/C=C(\C)CC/C=C(\C)CCC=C(C)C)c(O)c1OC [Reduced CoQ10, reference compound]
Regenerated CoQ10 in absence of 3,8-(OH)2-DBP ([1]; autoxidation of CoQH2, pH 8, 20 min): 5.49 µg/mL
Regenerated CoQ10 in absence of 3,8-(OH)2-DBP ([1]; autoxidation of CoQH2, pH 8, 40 min): 72.98 µg/mL
Regenerated CoQ10 in absence of 3,8-(OH)2-DBP ([2]; autoxidation of CoQH2, pH 8, 0 min): 0 µg/mL
Regenerated CoQ10 in absence of 3,8-(OH)2-DBP ([2]; autoxidation of CoQH2, pH 8, 60 min): 184.68 µg/mL
Regenerated CoQ10 in absence of 3,8-(OH)2-DBP ([2]; autoxidation of CoQH2, pH 8, 80 min): 202.28 µg/mL
Regenerated CoQ10 in absence of 3,8-(OH)2-DBP ([2]; autoxidation of CoQH2, pH 8, 100 min): 109.23 µg/mL
Reduced CoQ10 remaining in control ([2]; pH 3, 0 hour): 100.00%
Reduced CoQ10 remaining in control ([2]; pH 3, 48 hour): 57.25%
Reduced CoQ10 remaining in control ([2]; pH 3, 72 hour): 61.95%
Reduced CoQ10 remaining in control ([2]; pH 7, 0 hour): 100.00%
Reduced CoQ10 remaining in control ([2]; pH 7, 48 hour): 7.73%
Reduced CoQ10 remaining in control ([2]; pH 7, 72 hour): 3.70%
Reduced CoQ10 remaining in control ([2]; pH 8, 0 min, methanol): 100.00%
Reduced CoQ10 remaining in control ([2]; pH 8, 40 min, methanol): 79.18%
Reduced CoQ10 remaining in control ([2]; pH 8, 60 min, methanol): 54.09%
Reduced CoQ10 remaining in control ([2]; pH 8, 80 min, methanol): 33.17%
Reduced CoQ10 remaining in control ([2]; pH 8, 100 min, methanol): 20.87%
Relative percentage of aberrant metabolites in absence of 3,8-(OH)2-DBP ([3]; pH 8, 0 minutes): 0%
Relative percentage of aberrant metabolites in absence of 3,8-(OH)2-DBP ([3]; pH 8, 40 minutes): 93%
Relative percentage of aberrant metabolites in absence of 3,8-(OH)2-DBP ([3]; pH 8, 80 minutes): 96%

COC1=C(OC)C(=O)C(C/C=C(\C)CC/C=C(\C)CC/C=C(\C)CC/C=C(\C)CC/C=C(\C)CC/C=C(\C)CC/C=C(\C)CC/C=C(\C)CC/C=C(\C)CCC=C(C)C)=C(C)C1=O [CoQ10]
OD Values at 532 nm (lipid peroxidation) [4]: 0.467
concentration at 5 days ([5]; Swiss albino, mouse, blood): 810 nM
Coenzyme Q: Heart ([5]; wet weight): 35.69 nmol/gm
Coenzyme Q: Kidney ([5]; wet weight): 16.51 nmol/gm
Coenzyme Q: Liver ([5]; wet weight): 19.41 nmol/gm
OD Values at 532 nm (lipid peroxidation) [6]: 1.147

O=c1oc2cc(O)ccc2c2cc(-c3cc4c(cc3O)c(=O)oc3cc(O)ccc34)c(O)cc12 [3,8-(OH)2-DBP-dimer, 3,3′,8,8′-tetrahydroxy-9,9′-bis-dibenzo-α-pyrone]
Amount in mitochondria after DBP treatment [7]: 28.6 nmol/gm wet wt
